Laboratory results taken from publication PMC6102140, “Structural insight into the human mitochondrial tRNA purine N1-methyltransferase and ribonuclease P complexes” (The Journal of Biological Chemistry, 2018).

How the values were obtained:
[1] = target: MRPP1N (N domain of MRPP1), expressed alone (human) (UniProt Q7L0Y3); assay: SEC; analytical SEC of single proteins, Superdex S200 10/300 GL (or KW403-4F), apparent mass from standards of known Mr, n = 3
MRPP1MT+C(Δ194) = target: T1, MRPP1MT+C(Δ194) (Homo sapiens, UniProt Q7L0Y3); assay: differential scanning fluorimetry; type: binding; details: pH 7.5, 150 mM NaCl
T1 construct: gene TRMT10C; methyltransferase domain with C extension, residues 195-403, N-terminal His6 vector, E. coli; monomer
T1 sequence (Q7L0Y3 195-403): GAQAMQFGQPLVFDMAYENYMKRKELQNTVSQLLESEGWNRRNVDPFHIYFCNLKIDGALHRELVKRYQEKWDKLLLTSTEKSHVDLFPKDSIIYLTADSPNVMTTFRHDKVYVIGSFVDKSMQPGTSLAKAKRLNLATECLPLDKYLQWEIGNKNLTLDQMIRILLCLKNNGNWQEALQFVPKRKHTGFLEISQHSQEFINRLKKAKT

[2] = target: T2, MRPP1ΔMTS–MRPP2 complex (SDR activity of MRPP2) (Homo sapiens, UniProt Q99714); assay: differential scanning fluorimetry; type: binding; details: pH 7.5, 150 mM NaCl
T2 construct: gene HSD17B10; co-expressed in E. coli; His-tagged mature MRPP1 (40-403) and untagged full-length MRPP2; 2:4 complex, 194 kDa by SEC-MALS; with tRNA methyltransferase 10 homolog C
T2 sequence (Q99714 2-261): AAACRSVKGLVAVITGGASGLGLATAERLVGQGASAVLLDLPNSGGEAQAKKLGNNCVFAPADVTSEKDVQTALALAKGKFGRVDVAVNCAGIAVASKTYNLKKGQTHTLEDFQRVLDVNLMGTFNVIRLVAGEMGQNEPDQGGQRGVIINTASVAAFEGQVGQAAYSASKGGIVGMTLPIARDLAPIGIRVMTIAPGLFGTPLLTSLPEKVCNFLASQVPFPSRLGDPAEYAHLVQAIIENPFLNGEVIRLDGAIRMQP
T2 sequence (Q7L0Y3 40-403 partner): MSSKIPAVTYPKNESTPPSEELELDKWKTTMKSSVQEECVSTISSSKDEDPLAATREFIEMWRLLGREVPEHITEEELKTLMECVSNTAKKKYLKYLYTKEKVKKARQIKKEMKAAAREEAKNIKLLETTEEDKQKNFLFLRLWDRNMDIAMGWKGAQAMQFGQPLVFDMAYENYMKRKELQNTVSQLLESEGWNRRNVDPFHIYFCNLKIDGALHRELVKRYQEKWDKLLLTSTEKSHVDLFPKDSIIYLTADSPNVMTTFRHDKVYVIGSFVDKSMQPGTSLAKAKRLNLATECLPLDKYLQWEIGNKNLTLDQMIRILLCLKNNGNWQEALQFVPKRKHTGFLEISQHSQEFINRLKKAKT

MRPP1MT+C(Δ202) = target: T3, MRPP1MT+C(Δ202) (Homo sapiens, UniProt Q7L0Y3); assay: X-ray crystal structure, […] Å; type: binding; details: co-crystallised with SAM, 4 °C
T3 construct: gene TRMT10C; methyltransferase domain with C extension, residues 203-403, N-terminal His6 vector, E. coli; residues 380-403 disordered; monomer
T3 sequence (Q7L0Y3 203-403): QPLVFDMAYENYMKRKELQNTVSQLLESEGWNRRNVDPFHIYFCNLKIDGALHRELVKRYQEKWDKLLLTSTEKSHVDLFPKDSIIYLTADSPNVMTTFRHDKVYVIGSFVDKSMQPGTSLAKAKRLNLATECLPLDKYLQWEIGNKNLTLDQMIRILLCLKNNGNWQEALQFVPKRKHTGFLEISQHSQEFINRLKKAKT

[3] = target: T4, MRPP1ΔMTS–MRPP2 complex (SAM site / MTase activity of MRPP1) (Homo sapiens, UniProt Q7L0Y3); assay: differential scanning fluorimetry; type: binding; details: pH 7.5, 150 mM NaCl
T4 construct: gene TRMT10C; co-expressed in E. coli; His-tagged mature MRPP1 (40-403) and untagged full-length MRPP2; 2:4 complex, 194 kDa by SEC-MALS; with 3-hydroxyacyl-CoA dehydrogenase type-2
T4 sequence (Q7L0Y3 40-403): T2 sequence (Q7L0Y3 40-403 partner)
T4 sequence (Q99714 2-261 partner): T2 sequence (Q99714 2-261)

MRPP1ΔMTS = target: T5, MRPP1ΔMTS (Homo sapiens, UniProt Q7L0Y3); assay: differential scanning fluorimetry; type: binding; details: 7.5 mM SAM; pH 7.5, 150 mM NaCl
T5 construct: gene TRMT10C; mature protein without mitochondrial targeting signal, residues 40-403, N-terminal His6 vector, E. coli; monomer/dimer mixture
T5 sequence (Q7L0Y3 40-403): T2 sequence (Q7L0Y3 40-403 partner)

[4] = target: T6, MRPP2, untagged, co-expressed with His-tagged MRPP1 constructs (bicistronic plasmid) (human), Q99714; assay: SEC-SAXS; KW403-4F column in line with SAXS, 4.5 mg/ml; 50 mM sodium phosphate pH 7.4, 300 mM NaCl, 5% glycerol, 1% sucrose, 0.5 mM TCEP (for MRPP1, MRPP2 and MRPP1–MRPP2; buffer for MRPP3 alone not told); no tRNA; details: remark: other sources report otherwise
T6 chain: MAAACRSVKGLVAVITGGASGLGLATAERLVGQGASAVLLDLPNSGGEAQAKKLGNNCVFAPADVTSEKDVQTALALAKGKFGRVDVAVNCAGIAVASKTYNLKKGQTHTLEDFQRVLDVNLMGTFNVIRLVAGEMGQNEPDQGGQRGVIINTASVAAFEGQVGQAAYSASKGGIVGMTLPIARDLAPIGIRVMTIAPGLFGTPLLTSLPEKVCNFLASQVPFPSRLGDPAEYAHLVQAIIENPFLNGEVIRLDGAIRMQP

[5] = target: T7, MRPP2 (HSD17B10), expressed alone, tag removed (human), Q99714; assay: as above; details: remark: other sources report otherwise
T7 chain: T6 chain

[6] = target: the molecule itself; assay: SEC; analytical SEC of single proteins, Superdex S200 10/300 GL (or KW403-4F), apparent mass from standards of known Mr, n = 3
[7] = substrate: CC(=O)[C@H]1CC[C@H]2[C@@H]3CC[C@H]4C[C@H](O)CC[C@]4(C)[C@H]3CC[C@]12C; assay: 3alpha-HSD (SDR) activity, fluorescence, Michaelis-Menten fit; type: biochemical, Homo sapiens; details: MRPP2 alone
Excerpt: 3alpha-HSD (SDR) activity, fluorescence, Michaelis-Menten fit on MRPP2 | measured using the neurosteroid allopregnanolone as MRPP2 substrate

[8] = substrate: CC(=O)[C@H]1CC[C@H]2[C@@H]3CC[C@H]4C[C@H](O)CC[C@]4(C)[C@H]3CC[C@]12C; assay: as above; type: biochemical, Homo sapiens; details: in complex with MRPP1ΔMTS
[9] = ligand concentration not in text, text says MTase domain, construct boundary not stated

Work on “MRPP1N (N domain of MRPP1), expressed alone (from UniProt Q7L0Y3 40-203) (domain or fragment)” yielded a stoichiometry N [1] of 2.

For `Nc1ncnc2c1ncn2[C@@H]1O[C@H](CO)[C@@H](OP(=O)(O)O)[C@H]1O` [3′-AMP], the Tm shift (MRPP1MT+C(Δ194); [9]) was 3.65 ± 0.16 °C.

In the case of `NC(=O)C1=CN([C@@H]2O[C@H](COP(=O)(O)OP(=O)(O)OC[C@H]3O[C@@H](n4cnc5c(N)ncnc54)[C@H](O)[C@@H]3O)[C@@H](O)[C@H]2O)C=CC1` [NADH], the Tm shift [2] is reported as “retained their ability to bind the cofactor (NADH) and methyl donor (SAM)”.

Molecule `Nc1ncnc2c1ncn2[C@@H]1O[C@H](CSCC[C@H](N)C(=O)O)[C@@H](O)[C@H]1O` [S-adenosyl-homocysteine] has a Tm shift (MRPP1MT+C(Δ194); [9]) of 5.00 ± 0.18 °C.

With `C[S+](CC[C@H](N)C(=O)O)C[C@H]1O[C@@H](n2cnc3c(N)ncnc32)[C@H](O)[C@@H]1O` (stereo partly drawn) [SAM, S-adenosyl-L-methionine] the “X-ray crystal structure, 1.96 Å” value (MRPP1MT+C(Δ202)) was “Each MRPP1MT subunit is bound by a SAM molecule”, the Tm shift (MRPP1MT+C(Δ194); 7.5 mM SAM) was 9.75 ± 0.48 °C and the Tm shift [3] was “retained their ability to bind the cofactor (NADH) and methyl donor (SAM)”. For the same molecule, the Tm shift (MRPP1ΔMTS) was 6.04 ± 0.09 °C.

B1: MRPP2, untagged, co-expressed with His-tagged MRPP1 constructs (bicistronic plasmid), Q99714 1-261 (natural protein)
chain: T6 chain
B1 was tested, and the stoichiometry N [4] was 4.

B2: MRPP2 (HSD17B10), expressed alone, tag removed, Q99714 1-261 (natural protein)
chain: T6 chain
In the case of B2, the stoichiometry N [5] is reported as 4.

B3: MRPP1_(ΔMTS) (mature mitochondrial RNase P protein 1, aa 40–403), expressed alone (natural protein, human, UniProt Q7L0Y3 40-403, looked up)
chain: T2 sequence (Q7L0Y3 40-403 partner)
notes: human MRPP1 (TRMT10C/RG9MTD1), 403 aa precursor; residues 40-403, without the mitochondrial targeting signal (1-39); In solution a mixture of monomer and dimer; also called TRMT10C; RG9MTD1; source: E. coli BL21(DE3)-R3-pRARE2, purified
With B3 the “stoichiometry N” value [6] was 2.

B4: MRPP2 (Homo sapiens) (protein)
chain: T2 sequence (Q99714 2-261)
notes: full-length MRPP2, N-terminal His6 (pNIC28-Bsa4), TEV treated, E. coli; homotetramer
In the case of B4, the Km [7] is reported as 7.70 ± 0.50 µM.

B5: MRPP1ΔMTS–MRPP2 complex (SDR activity of MRPP2) (Homo sapiens) (protein)
chain: T2 sequence (Q99714 2-261)
notes: co-expressed in E. coli; His-tagged mature MRPP1 (40-403) and untagged full-length MRPP2; 2:4 complex, 194 kDa by SEC-MALS; with tRNA methyltransferase 10 homolog C
In the case of B5, the Km [8] is reported as 3.40 ± 0.40 µM.
